Data reported in the supplement of paper PMC12532568.

Tested on: Danio rerio larvae Tg(actc1b:ZsGreen-LC3), 3 dpf
Test: LC3 puncta relative area vs vehicle (mean) (log2 fold change); higher = more autophagy
Details: treatment time 16 h
Method: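 Transgenic ZsGreen-LC3 zebrafish larvae (2 dpf) were treated for 16 h with natural bioactives at 10, 50, 100 or 250 µM. Skeletal-muscle LC3 puncta area was measured by high-content imaging with or without 4 h of 100 mM NH4Cl, normalised to vehicle, and reported as the mean log2 fold change over 4–21 larvae.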

Compound | LC3 puncta (log2) (NH4Cl: + NH4Cl, 10 µM) | LC3 puncta (log2) (NH4Cl: + NH4Cl, 50 µM) | LC3 puncta (log2) (NH4Cl: + NH4Cl, 100 µM) | LC3 puncta (log2) (NH4Cl: - NH4Cl, 10 µM) | LC3 puncta (log2) (NH4Cl: - NH4Cl, 50 µM) | LC3 puncta (log2) (NH4Cl: - NH4Cl, 100 µM) | LC3 puncta (log2) (NH4Cl: - NH4Cl, 250 µM) | LC3 puncta (log2) (NH4Cl: + NH4Cl, 250 µM)
CC1=C(/C=C/C(C)=C/C=C/C(C)=C/CO)C(C)(C)CCC1 [Retinol] | 1.19 | 0.124 | 0.0946 | 0.12 | -0.269 | 0.255 | 0.596 | 
C[C@@H](O)C(=O)O [(2R)-2-hydroxypropanoic acid] | 0.532 | 0.237 | 0.304 | 0.00532 | -0.27 | 0.144 | -0.203 | 0.589
CC(O)CC(=O)O (stereo unspecified) [3-Hydroxybutyrate] | 0.306 | 0.707 | 0.353 | 0.219 | 0.327 | 0.00999 | 0.0766 | 0.884
O=C(O)C=CC(=O)O [Butenedioic acid] | 0.693 | 1.1 | 1.29 | 0.588 | 0.758 | 0.837 | 0.447 | 1.14
NC(=O)c1cccnc1 [Nicotinamide NAM] | 0.821 | 0.328 | 0.663 | -0.196 | -0.178 | 0.12 | -0.631 | 0.606
Oc1cc(O)c2c(c1)O[C@H](c1ccc(O)c(O)c1)[C@H](O)C2 [(-)-Epicatechin] | 0.954 | 0.317 | 0.232 | -0.000662 | -0.156 | -0.539 | -0.492 | 0.0319
C[C@@H](CO)C(=O)O [Sodium β-hydroxyisobutyrate] | 0.761 | 0.505 | 0.553 | 0.14 | -0.573 | -0.233 | -0.327 | 0.277
CCCCCCCC/C=C\CCCCCCCCCCCCCC(=O)O [Nervonic acid] | 0.639 | 0.888 | 1.09 | -0.0528 | 0.0416 | 0.723 | 0.0463 | 0.707
C[N+](C)(C)CCO.C[N+](C)(C)CCO.C[N+](C)(C)CCO.O=P([O-])([O-])[O-] [Tricholine phosphate] | 0.7 | 0.208 | -0.172 | 0.0959 | 0.0907 | 0.25 | -0.277 | 0.38
C[n+]1cccc(C(=O)[O-])c1 [Trigonelline] | 0.266 | 0.266 | 0.112 | 0.202 | 0.619 | 0.435 | -0.0876 | 
C/C=C\C=C\C(=O)O [(2E,4Z)-2,4-hexadienoic acid] | 0.772 | 1.14 | 1.21 | 0.44 | -0.191 | 1.17 | -0.266 | 0.824
Cc1ccc(C(C)C)c(O)c1 [Thymol] | 0.947 | 1.4 | 1.68 | 0.0897 | 0.575 | 0.869 | 1.65 | 1.55
O=C(O)CCSCCC(=O)O [3,3'-thiodipropionic acid] | 0.309 | 0.728 | -0.445 | 0.0135 | 0.045 | -0.0204 | -0.062 | 0.629
O=C1C[C@H](O)[C@@H](CO)O1 [2-deoxyribonolactone] | 0.749 | 0.4 | 0.746 | 0.195 | -0.131 | 0.251 | -0.0832 | 0.616
O=C(O)c1ccccc1 [Benzoic acid] | -0.0668 | 0.917 | 1.5 | 0.129 | 0.383 | 1.14 |  | 
CC(C)C[C@H](N)C(=O)O [L-Leucine] | 0.433 | 0.183 | 0.128 | -0.25 | -0.762 | -0.689 | -0.726 | -0.405
N[C@@H](CCC(=O)O)C(=O)O [L-glutamic acid] | 0.755 | 0.239 | 0.876 | 0.144 | 0.165 | 0.702 | 0.322 | 0.997
C[C@@H](O)CCO [(R)-1,3-Butylene Glycol] | 0.22 | -0.0174 | 0.179 | 0.0281 | -0.261 | -0.294 | -0.184 | 0.0875
O=C(O)C[C@H](O)C(=O)O [(2S)-2-hydroxybutanedioic acid] | 0.631 | 0.508 | 0.375 | -0.158 | 0.038 | 0.417 | 0.262 | 
CC(=O)CC(=O)O [Lithium acetoacetate] | 0.433 | 0.388 | 0.24 | 0.304 | -0.266 | -0.279 | 0.0398 | 0.594
O=C(O)CCC(=O)O [Succinic acid] | 0.752 | 0.769 | 0.297 | 0.044 | 0.06 | -0.705 | -0.0293 | 0.806
NC(=O)c1ccc[n+]([C@@H]2O[C@H](CO)[C@@H](O)[C@H]2O)c1 [Nicotinamide riboside chloride] | 0.917 | 0.613 | 0.663 | 0.148 | -0.293 | 0.0672 | 0.257 | 0.76
O=C(O)c1cccnc1 [Nicotinic acid] | 0.718 | 0.758 | 0.79 | 0.0747 | 0.284 | 0.456 | 0.418 | 0.941
O=C(O)CC(O)(CC(=O)O)C(=O)O [Citric acid] | 0.486 | 0.837 | -0.0949 | -0.0291 | -0.364 | 0.353 | 0.401 | -0.815
C/C1=C2/[N-]C([C@H](CC(N)=O)[C@@]2(C)CCC(=O)NCC(C)OP(=O)([O-])OC2C(O)[C@@H](n3cnc4cc(C)c(C)cc43)O[C@@H]2CO)[C@]2(C)N=C(/C(C)=C3N=C(/C=C4N=C1[C@@H](CCC(N)=O)C\4(C)C)[C@@H](CCC(N)=O)[C@]\3(C)CC(N)=O)[C@@H](CCC(N)=O)[C@]2(C)CC(N)=O.[CH2-]C1O[C@H](n2cnc3c(N)ncnc32)[C@@H](O)[C@H]1O.[Co+3] (stereo partly specified) [Coenzyme B12] | 0.47 | 0.446 | 0.394 | 0.178 | -0.299 | 0.292 | 0.281 | 0.833
O=c1c(O)c(-c2ccc(O)c(O)c2)oc2cc(O)cc(O)c12 [Quercetin] | 0.773 | 0.126 | 0.298 | -0.173 | -0.502 | -1.19 | -0.815 | 0.298
CCCCCCCCCC(=O)[O-].[Na+] [Sodium decanoate] | 0.524 | -0.00931 | -1.55 | 0.285 | -0.0288 | -0.846 | 0.298 | -0.382
CC1=C(/C=C/C(C)=C/C=C/C(C)=C/C=C/C=C(C)/C=C/C=C(C)/C=C/C2=C(C)CCCC2(C)C)C(C)(C)CCC1 [beta-Carotene] | 0.44 | 0.208 | 0.299 | 0.227 | -0.273 | 0.207 | 0.305 | 1.2
C[C@H](O)CCO [(S)-1,3-Butylene Glycol] | 0.505 | -0.0626 | 0.509 | -0.143 | -0.512 | -0.016 | 0.014 | 
